The values that follow come from patent US9359341B2, “Aldehyde derivative of substitute oxazolidinones” (WANBURY LTD., priority 2012, dated 2016).

Series [1] is described as follows: Stability in simulating gastric fluid (SGF). Type of series: physicochemical. As to the method:
(§1) On completion of incubation period, the solution is centrifuged and supernatant is taken. To the supernatant, ice cold acetonitrile containing IS is added, vortexed and injected into LCMS/MS.
(§2) API 4000, ESI Agilent 1100 column: Gemini Nx 100 mm×4.6 mm 5.μ; column temperature: 30° C.; eluent A: 0.1% formic acid in water, eluent B: acetonitrile; gradient: 0-2.5 min 95% A, 5% B; 2.5-2.6 min 5% A, 95% B; 2.6-4.2 min 95% A, 5% B; flow rate: 0.8 ml/min; ESI. Q1:464.098, Q3:144.255
(§3) Prepared 0.1 mol of citric acid and 0.2 mol of di sodium hydrogen phosphate in water. Buffer pH 2.2, 4 and 7.8 are prepared using citric acid and disodium hydrogen phosphate by adjusting the pH with 0.1N HCl or 1N NaOHpH 7.4: 8.89 g disodium hydrogen phosphate (Solution A) add to 1 liter of water, 1.5601 g sodium di-hydrogen phosphate (solution B) are made up to 1 liter with water; Solution A (19 ml) and Solution B (81 ml) are mixed. SIF/SGF: 2.38 g of SIF original powder (biorelavant media) is dissolved in 1 L of milliQ water. The pH of the solution is adjusted for SIF (7.4) and SGF (2.2) with 0.1N HCl. The ratios of the peak areas (F) at the respective time points in relation to the peak areas at the starting time are calculated
The peak area (F) is directly correlated to the amount of test compound which is quantified by the LC MS method.
In simulating intestinal and gastric fluid, the area of the formula B compared with zero minute area to 120 min.

The nature of series [2]: In vitro stability in rat plasma. Type of series: in vitro ADME. The note with it: conversion to rivaroxaban seen from zero min. As for the experimental part: (§4) The final concentration of the test compound in the assay is 5 micromolar. […] C. The 100 microliters of aliquot at time point was removed and diluted with ice cold acetonitrile containing IS (200.mu·L) to stop the reactions. Samples are centrifuged at 10,000 RPM for 5 minutes to precipitate proteins. Supernatants are transferred to micro centrifuge tubes and stored at −20° C. for analysis of LC/MS/MS. The percent parent remaining of the test substance is calculated as ratio of peak area at each time point to peak area ratio at zero min, multiplied by 100.
(§5) API 4000, ESI Agilent 1100 column: Gemini Nx 100 mm×4.6 mm 5.1; column temperature: 30° C.; eluent A: 0.1% formic acid in water, eluent B: acetonitrile; gradient: 0-2.5 min 95% A, 5% B; 2.5-2.6 min 5% A, 95% B; 2.6-4.2 min 95% A, 5% B; flow rate: 0.8 ml/min; ESI. Q1:464.098, Q3:144.255

The next series has as its target CYP3A4 (Homo sapiens (Human), UniProt P08684). Briefly: CYP inhibition assay. The series is classed as in vitro ADME. The note with it: pooled human liver microsomes; extrapolated IC50 derived from 3 μM; read-out: IC50 (μM) of CYP isoforms, 3A4. As for the experimental part: (§6) The ability of substances to inhibit CYP1A2, CYP2C9, CYP2D6, CYP2C19, CYP2J2 and CYP3A4 in humans was investigated with pooled human liver microsomes as enzyme source in the presence of standard substrates (see below) which form CYP-isoform-specific metabolites.
(§7) Standard incubation mixtures comprise NADPH and substrates in 100 mM phosphate buffer (pH 7.4) in a total volume of 200 μl. Test compound are dissolved in acetonitrile. Incubated with pooled human liver microsomes at 37° C. for a defined time. The reactions are stopped by adding 100 μl of acetonitrile in which a suitable internal standard is always present. Precipitated proteins are removed by centrifugation, and the supernatants analyzed by LC-MS/MS.

The target in another series is CYP1A2 (Homo sapiens (Human), UniProt P05177). Briefly: CYP inhibition assay. Type of series: in vitro ADME. The note with it: pooled human liver microsomes; extrapolated IC50 derived from 3 μM; read-out: IC50 (μM) of CYP isoforms, 1A2. As for the experimental part: as §6, §7
Series [3] in a line: Stability in simulating intestinal fluid (SIF). The series is classed as physicochemical. Conditions: over 120 min. As for the experimental part: as §1, §2, §3
The peak area (F) is directly correlated to the amount of test compound which is quantified by the LC MS method. […]

Series [4] in a line: In vitro stability in human plasma. The series is classed as in vitro ADME. The note with it: conversion to rivaroxaban seen from zero min. As to the method: as §4, §5

CYP3A4, sequence (P08684 whole entry, canonical isoform): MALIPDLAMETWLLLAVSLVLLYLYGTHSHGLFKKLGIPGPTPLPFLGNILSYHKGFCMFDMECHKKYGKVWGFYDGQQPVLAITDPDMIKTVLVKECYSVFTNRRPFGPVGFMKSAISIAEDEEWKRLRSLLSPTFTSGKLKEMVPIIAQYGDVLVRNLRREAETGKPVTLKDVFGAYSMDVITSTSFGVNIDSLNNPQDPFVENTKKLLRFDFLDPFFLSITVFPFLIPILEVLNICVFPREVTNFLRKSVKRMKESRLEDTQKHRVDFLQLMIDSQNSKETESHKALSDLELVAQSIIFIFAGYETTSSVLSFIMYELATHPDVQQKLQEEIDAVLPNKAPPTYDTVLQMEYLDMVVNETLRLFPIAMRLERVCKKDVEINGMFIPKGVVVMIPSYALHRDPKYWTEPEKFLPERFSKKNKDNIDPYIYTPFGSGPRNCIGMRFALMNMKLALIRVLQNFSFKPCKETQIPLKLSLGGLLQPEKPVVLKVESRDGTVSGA
CYP1A2, sequence (P05177 whole entry, canonical isoform): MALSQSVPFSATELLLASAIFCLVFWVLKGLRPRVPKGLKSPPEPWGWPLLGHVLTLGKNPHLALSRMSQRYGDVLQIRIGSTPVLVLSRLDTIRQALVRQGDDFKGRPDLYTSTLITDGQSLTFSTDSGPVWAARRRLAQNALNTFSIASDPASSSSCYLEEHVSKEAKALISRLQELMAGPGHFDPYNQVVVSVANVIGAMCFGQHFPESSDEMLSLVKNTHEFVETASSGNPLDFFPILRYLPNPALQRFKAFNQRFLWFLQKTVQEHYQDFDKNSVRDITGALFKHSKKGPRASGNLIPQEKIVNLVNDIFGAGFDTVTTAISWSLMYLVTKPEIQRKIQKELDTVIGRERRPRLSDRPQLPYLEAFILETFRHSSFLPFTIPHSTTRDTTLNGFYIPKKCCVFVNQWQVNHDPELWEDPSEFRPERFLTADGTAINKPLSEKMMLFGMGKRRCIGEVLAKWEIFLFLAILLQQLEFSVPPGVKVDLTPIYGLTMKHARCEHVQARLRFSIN

Take `O=CN(C[C@H]1CN(c2ccc(N3CCOCC3=O)cc2)C(=O)O1)C(=O)c1ccc(Cl)s1` [Compound formula B, 5-chloro-N-formyl-N-({(5S)-2-oxo-3-[4-(3-oxomorpholin-4-yl)phenyl]-1,3-oxazolidin-5-yl}methyl)thiophene-2-carboxamide]: the “% Parent remaining” value is listed as 99.27% in series [1] (30 min), 101.17% in series [1] (60 min), 100.05% in series [1] (120 min) and 100% in series [1] (Zero min). Also, the “Conclusion (stability in SGF)” value in series [1] (up to 120 min) is recorded as “is stable”. Besides, the “Conversion: amount of test product detected” value in series [2] and in series [4] was “min. Neglible” each time. Also, the IC50 on CYP3A4 was 5.7 µM; at CYP1A2, 1.4 µM. For the same compound, the “stability at simulating intestinal conditions” value in series [3] is “stable at simulating intestinal conditions”.

What is called IC50 is the point on the concentration scale where inhibition reaches its midpoint.
